Results from patent US20180028507A1, “3-CARBAMOYLPHENYL-4-CARBOXAMIDE AND ISOPHTALAMIDE DERIVATIVES AS INHIBITORS OF THE WNT SIGNALLING PATHWAY” (Bayer Pharma Aktiengesellschaft, priority 2015, published 2018).

How the values were obtained:
[1] = test system: HCT116 cells cotransfected with the FOP control vector (non-functional TCF elements); experiment: HCT116 FOPFlash control reporter assay (FOP control vector, luciferase); format: cell-based; settings: Homo sapiens, HCT-116, 36 hours incubation, dilution series 50 μM to 15 nM, luciferase expression
Description: In a parallel approach, HCT116 cells were cotransfected with the FOP control vector and pcDNA3. The FOP vector is identical to the TOP construct, but it contains instead of functional TCF elements a randomized, non-functional sequence. For this transfection a stable transfected cell line was generated as well.
(§1) In preparation of the assay, the two cell lines were plated 24 hours before at 10000 cells per well of a 384 micro titre plate (MTP) in 30 μL growth medium. Selective inhibitory activity for small molecules on the mutated Wnt pathway was determined after parallel incubation of both (TOP and FOP) HCT116 reporter cell lines with a compound dilution series from 50 μM to 15 nM in steps of 3.16-fold dilutions in CAFTY buffer (130 mM NaCl, 5 mM KCl, 20 mM HEPES, 1 mM MgCl2, 5 mM NaHCO3, pH 7.4) containing 2 mM Ca^2+ and 0.01% BSA. The compounds were thereby serially prediluted in 100% DMSO and thereafter in addition 50 fold into the CAFTY compound dilution buffer (described above). From this dilution 10 μL were added to the cells in 30 μL growth medium and incubated for 36 hours at 37° C. and 5% CO2.

[2] = test system: constitutive active colorectal cancer cell (CRC) Wnt pathway; experiment: HCT116 TOPFlash cellular reporter assay (Super TopFlash vector, luciferase); format: cell-based; settings: Homo sapiens, HCT-116; HCT116 Super TopFlash reporter cells, 36 hours incubation, dilution series 50 μM to 15 nM, luciferase expression
Description: In order to discover and characterize small molecules which inhibit the constitutive active colorectal cancer cell (CRC) Wnt pathway, a cellular reporter assay was employed. The corresponding assay cell was generated by transfection of the colorectal cancer cell line HCT116 (ATCC, #CCL-247) with the Super TopFlash vector (Morin, Science 275, 1997, 1787-1790; Molenaar et al., Cell 86 (3), 1996, 391-399). The HCT116 cell line is cultivated at 37° C. and 5% CO2 in DMEM/F-12 (Life Technologies, #11320-074), supplemented with 2 mM glutamine, 20 mM HEPES, 1.4 mM pyruvate, 0.15% Na-bicarbonate and 10% foetal bovine serum (GIBCO, #10270), this cancer cell line is pathophysiological relevant since it carries a deletion of position S45 in the β-catenin gene, leading to constitutive active Wnt signaling. Stable transfectants were generated by cotransfection with pcDNA3 and selection of stable transfected cells with 1 mg/ml G418.
as §1

SMILES | IC50 [1] [nM] | IC50 [2] [nM]
COc1ccc(NC(=O)c2ccc(-c3ccccc3)cc2)cc1C(=O)Nc1ccncc1 [Example 1, N-[4-methoxy-3-(pyridin-4-ylcarbamoyl)phenyl]biphenyl-4-carboxamide] | 35000 | 483
COCCCNC(=O)c1cc(NC(=O)c2ccc(-c3ccccc3)cc2)ccc1OC [Example 2, N-{4-methoxy-3-[(3-methoxypropyl)carbamoyl]phenyl}biphenyl-4-carboxamide] | ≥ 50000 | 495
COc1ccc(NC(=O)c2ccc(-c3ccccc3)cc2)cc1C(=O)Nc1ccnc(C)c1 [Example 3, N-{4-methoxy-3-[(2-methylpyridin-4-yl)carbamoyl]phenyl}biphenyl-4-carboxamide] | 28000 | 91.7
COCCCN(C)C(=O)c1cc(NC(=O)c2ccc(-c3ccccc3)cc2)ccc1OC [Example 4, N-{4-methoxy-3-[(3-methoxypropyl)(methyl)carbamoyl]phenyl}biphenyl-4-carboxamide] | 12200 | 815
CCOCCCNC(=O)c1cc(NC(=O)c2ccc(-c3ccccc3)cc2)ccc1OC [Example 5, N-{3-[(3-ethoxypropyl)carbamoyl]-4-methoxyphenyl}biphenyl-4-carboxamide] | 31000 | 608
COc1ccc(NC(=O)c2ccc(-c3ccccc3)cc2)cc1C(=O)NCCCOC(C)C [Example 6, N-{3-[(3-isopropoxypropyl)carbamoyl]-4-methoxyphenyl}biphenyl-4-carboxamide] | 14400 | 383
COc1ccc(NC(=O)c2ccc(-c3ccccc3)cc2)cc1C(=O)Nc1ccncc1F [Example 8, N-{3-[(3-fluoropyridin-4-yl)carbamoyl]-4-methoxyphenyl}biphenyl-4-carboxamide] | ≥ 50000 | 129
COc1ccc(NC(=O)c2ccc(-c3ccccc3)cc2)cc1C(=O)Nc1ccncc1Cl [Example 9, N-{3-[(3-chloropyridin-4-yl)carbamoyl]-4-methoxyphenyl}biphenyl-4-carboxamide] | ≥ 50000 | 149
COc1ccc(C(=O)Nc2ccc(-c3ccccc3)cc2)cc1C(=O)Nc1ccncc1 [Example 11, N^1-(biphenyl-4-yl)-4-methoxy-N^3-(pyridin-4-yl)isophthalamide] | 11500 | 415
COc1ccc(C(=O)Nc2ccc(-c3ccccc3)cc2)cc1C(=O)Nc1ccnc(C)c1 [Example 12, N^1-(biphenyl-4-yl)-4-methoxy-N^3-(2-methylpyridin-4-yl)isophthalamide] | 13500 | 635
COc1ccc(C(=O)Nc2ccc(-c3ccccc3)cc2)cc1C(=O)Nc1ccncc1Cl [Example 15, N^1-(biphenyl-4-yl)-N^3-(3-chloropyridin-4-yl)-4-methoxyisophthalamide] | ≥ 50000 | 900
O=C(Nc1ccc(-c2ccccc2F)nc1)c1ccc(OC(F)(F)F)c(C(=O)Nc2ccncc2)c1 [Example 17, N^1-[6-(2-fluorophenyl)pyridin-3-yl]-N^3-(pyridin-4-yl)-4-(trifluoromethoxy)isophthalamide] | ≥ 50000 | 675
Cc1cnccc1NC(=O)c1cc(C(=O)Nc2ccc(-c3ccccc3F)nc2)ccc1OC(F)(F)F [Example 19, N^1-[6-(2-fluorophenyl)pyridin-3-yl]-N^3-(3-methylpyridin-4-yl)-4-(trifluoromethoxy)isophthalamide] | ≥ 50000 | 878
COc1ccc(C(=O)Nc2ccc(-c3ccccc3F)nc2)cc1C(=O)Nc1cccnc1C [Example 25, N^1-[6-(2-fluorophenyl)pyridin-3-yl]-4-methoxy-N^3-(2-methylpyridin-3-yl)isophthalamide] | ≥ 50000 | 840
COc1ccc(C(=O)Nc2ccc(-c3ccccc3F)nc2)cc1C(=O)Nc1ccnc(C)c1 [Example 26, N^1-[6-(2-fluorophenyl)pyridin-3-yl]-4-methoxy-N^3-(2-methylpyridin-4-yl)isophthalamide] | ≥ 50000 | 360
COc1ccc(C(=O)Nc2ccc(-c3ccccc3F)nc2)cc1C(=O)Nc1ccncc1F [Example 27, N^1-[6-(2-fluorophenyl)pyridin-3-yl]-N^3-(3-fluoropyridin-4-yl)-4-methoxyisophthalamide] | ≥ 50000 | 645
COc1cnccc1NC(=O)c1cc(C(=O)Nc2ccc(-c3ccccc3F)nc2)ccc1OC [Example 28, N^1-[6-(2-fluorophenyl)pyridin-3-yl]-4-methoxy-N^3-(3-methoxypyridin-4-yl)isophthalamide] | ≥ 50000 | 225
COCCNC(=O)c1cc(NC(=O)c2ccc(-c3ccccc3)cc2)ccc1OC [Example 31, N-{4-methoxy-3-[(2-methoxyethyl)carbamoyl]phenyl}biphenyl-4-carboxamide] | ≥ 50000 | 4590

Continued, values first:

IC50 [1] [nM] | IC50 [2] [nM] | SMILES
≥ 50000 | 359 | O=C(Nc1ccc(-c2ccccc2)cc1)c1ccc(OC(F)(F)F)c(C(=O)NCc2ccccn2)c1 [Example 7, N^1-(biphenyl-4-yl)-N^3-(pyridin-2-ylmethyl)-4-(trifluoromethoxy)isophthalamide]
10000 | 600 | Cc1cc(NC(=O)c2cc(C(=O)Nc3ccc(-c4ccccc4)cc3)ccc2OC(F)(F)F)ccn1 [Example 10, N^1-(biphenyl-4-yl)-N^3-(2-methylpyridin-4-yl)-4-(trifluoromethoxy)isophthalamide]
≥ 50000 | 405 | COc1ccc(C(=O)Nc2ccc(-c3ccccc3)cc2)cc1C(=O)Nc1ccncc1C [Example 13, N^1-(biphenyl-4-yl)-4-methoxy-N^3-(3-methylpyridin-4-yl)isophthalamide]
≥ 50000 | 144 | COc1ccc(C(=O)Nc2ccc(-c3ccccc3)cc2)cc1C(=O)Nc1ccncc1F [Example 14, N^1-(biphenyl-4-yl)-N^3-(3-fluoropyridin-4-yl)-4-methoxyisophthalamide]
≥ 50000 | 640 | COc1ccc(C(=O)Nc2ccc(-c3ccccc3)cc2)cc1C(=O)NCc1cccnc1 [Example 16, N^1-(biphenyl-4-yl)-4-methoxy-N^3-(pyridin-3-ylmethyl)isophthalamide]
18500 | 950 | O=C(Nc1ccc(-c2ccccc2F)nc1)c1ccc(OC(F)(F)F)c(C(=O)NCc2cccnc2)c1 [Example 18, N^1-[6-(2-fluorophenyl)pyridin-3-yl]-N^3-(pyridin-3-ylmethyl)-4-(trifluoromethoxy)isophthalamide]
7550 | 335 | O=C(Nc1ccc(-c2ccccc2)cc1)c1ccc(OC(F)(F)F)c(C(=O)Nc2ccncc2)c1 [Example 20, N^1-(biphenyl-4-yl)-N^3-(pyridin-4-yl)-4-(trifluoromethoxy)isophthalamide]
32500 | 160 | O=C(Nc1ccc(-c2ccccc2)cc1)c1ccc(OC(F)(F)F)c(C(=O)NCc2cccnc2)c1 [Example 21, N^1-(biphenyl-4-yl)-N^3-(pyridin-3-ylmethyl)-4-(trifluoromethoxy)isophthalamide]
≥ 50000 | 375 | O=C(Nc1ccc(-c2ccccc2)cc1)c1ccc(OC(F)(F)F)c(C(=O)Nc2ccncc2F)c1 [Example 22, N^1-(biphenyl-4-yl)-N^3-(3-fluoropyridin-4-yl)-4-(trifluoromethoxy)isophthalamide]
≥ 50000 | 243 | COc1cnccc1NC(=O)c1cc(C(=O)Nc2ccc(-c3ccccc3)cc2)ccc1OC(F)(F)F [Example 23, N^1-(biphenyl-4-yl)-N^3-(3-methoxypyridin-4-yl)-4-(trifluoromethoxy)isophthalamide]
23000 | 835 | CC(C)(C)OC(=O)Nc1ccc(CNC(=O)c2cc(C(=O)Nc3ccc(-c4ccccc4)cc3)ccc2OC(F)(F)F)cn1 [Example 24, tert-butyl [5-({[5-(biphenyl-4-ylcarbamoyl)-2-(trifluoromethoxy)benzoyl]amino}methyl)pyridin-2-yl]carbamate]
16000 | 760 | Nc1ccc(CNC(=O)c2cc(C(=O)Nc3ccc(-c4ccccc4)cc3)ccc2OC(F)(F)F)cn1 [Example 29, N^3-[(6-aminopyridin-3-yl)methyl]-N^1-(biphenyl-4-yl)-4-(trifluoromethoxy)isophthalamide]
31500 | 420 | O=C(Nc1ccc(-c2cccnc2)cn1)c1ccc(OC(F)(F)F)c(C(=O)NCc2cccnc2)c1 [Example 30, N^1-(3,3′-bipyridin-6-yl)-N^3-(pyridin-3-ylmethyl)-4-(trifluoromethoxy)isophthalamide]
